Laboratory results: patent US7109370B2, “Substituted phenylketoenols” (Bayer Aktiengesellschaft, priority 1997, dated 2006)

What was measured:
Format in all cases: in vivo
[1] = system: peach aphids (Myzus persicae); test: Myzus test (dipped cabbage leaves); details: active compound concentration 0.1%; after 6 days; infested cabbage leaves dipped
Protocol: (§1) To produce a suitable preparation of active compound, 1 part by weight of active compound is mixed with the stated amount of solvent and the stated amount of emulsifier, and the concentrate is diluted with water to the desired concentration.
Cabbage leaves (Brassica oleracea) which are heavily infested by peach aphids (Myzus persicae) are treated by being dipped into the preparation of active compound of the desired concentration.
After the desired period of time, the kill in % is determined. 100% means that all aphids have been killed; 0% means that none of the aphids have been killed.

[2] = system: greenhouse red spider mite Tetranychus urticae; test: Tetranychus test (OP-resistant/dip treatment); details: after 14 days, infested bean plants dipped
Protocol: Tetranychus Test (OP-Resistant/Dip Treatment)
as §1
Bean plants (Phaseolus vulgaris) which are heavily infested by all stages of the greenhouse red spider mite Tetranychus urticae are dipped into a preparation of active compound of the desired concentration.
After the desired period of time, the kill in % is determined. 100% means that all spider mites have been killed; 0% means that none of the spider mites have been killed.

[3] = system: caterpillars of the owlet moth (Spodoptera frugiperda); test: Spodoptera frugiperda test (dipped cabbage leaves); details: active compound concentration 0.1%, after 7 days
Protocol: Spodoptera frugiperda Test
as §1
Cabbage leaves (Brassica oleracea) are treated by being dipped into the preparation of active compound of the desired concentration and are populated with caterpillars of the owlet moth (Spodoptera frugiperda) while the leaves are still moist.
After the desired period of time, the kill in % is determined. 100% means that all caterpillars have been killed; 0% means that none of the caterpillars have been killed.

[4] = system: larvae of the mustard beetle (Phaedon cochleariae); test: Phaedon larvae test (dipped cabbage leaves); details: active compound concentration 0.1%, after 7 days
Protocol: Phaedon Larvae Test [table] To produce a suitable preparation of active compound, 1 part by weight of active compound is mixed with the stated amount of solvent and the stated amount of emulsifier, and the concentrate is diluted with water to the desired concentration. Cabbage leaves (Brassica oleracea) are treated by being dipped into the preparation of active compound of the desired concentration and are populated with larvae of the mustard beetle (Phaedon cochleariae) while the leaves are still moist.

[5] = system: green rice leaf hoppers (Nephotettix cincticeps); test: Nephotettix test (dipped rice seedlings); details: active compound concentration 0.1%, after 6 days
Protocol: as §1
Rice seedlings (Oryzae sativa) are treated by being dipped into the preparation of active compound of the desired concentration and are populated with green rice leaf hoppers (Nephotettix cincticeps) while the seedlings are still moist.
After the desired period of time, the kill in % is determined. 100% means that all leaf hoppers have been killed; […] means that none of the leaf hoppers have been killed.

Myzus persicae = test: Critical concentration test/root-systemic action, Myzus persicae; details: 20 ppm active compound in soil; peppers; populated after 7 days, evaluated after a further 6 days
Protocol: Critical Concentration Test/Root-systemic Action
as §1
(§2) The preparation of active compound is intimately mixed with soil. The concentration of the active compound in the preparation is of practically no importance here, only the amount by weight of active compound per unit volume of soil, which is given in ppm (=mg/l), being decisive. The treated soil is transferred into pots and these are planted with peppers at the cotyledon stage. The active compound can in this way be taken up from the soil by the roots of the plants and be transported into the leaves.
(§3) After a further 6 days, evaluation is carried out by counting or estimating the dead animals. The root-systemic action of the active compound is deduced from the mortality figures. It is 100% if all the test animals have been killed and 0% if just as many test insects are still alive as in the case of the untreated control.

Aphis fabae = test: Critical concentration test/root-systemic action, Aphis fabae; details: soil, read-out: root-systemic effect (mortality)
Protocol: Critical Concentration Test/Root-Systemic Action
as §1
as §2, with “pregerminated broad beans.” for “peppers at the cotyledon stage.”
as §3

[6] = active compound concentration 0.02%
[7] = active compound concentration 0.1%

## CC1CC2(CCO1)NC(=O)C(c1ccc(Br)cc1Cl)=C2O (single isomer, unassigned) [I-a-15]
[1]
  kill in %: 100%

## CCOC(=O)OC1=C(c2ccc(Cl)cc2Cl)C(=O)NC12CCOC(C)C2 (centres unmarked) [I-c-12]
[1]
  kill in %: 100%

## CCOC(=O)OC1=C(c2ccc(CC)cc2Cl)C(=O)NC12CCOC(C)C2 (centres unmarked) [I-c-13]
[2]; [6]
  effect (kill in %): 100%
[3]
  kill in %: 100%
[4]
  kill in %: 100%

## Cc1cc(C)c(C2=C(O)C3(CCOC(C)C3)NC2=O)c(C)c1C (single isomer, unassigned) [I-a-10]
[1]
  kill in %: 100%

## CC(=O)OC1=C(c2c(C)cc(C)cc2C)C(=O)NC12CCOC(C)C2 (single isomer, unassigned) [I-b-5]
[5]
  kill in %: 100%

## Cc1cc(Cl)cc(C)c1C1=C(OC(=O)C(C)C)C2(CCOC(C)C2)NC1=O (centres unmarked) [I-b-25]
Myzus persicae
  root-systemic effect (mortality): 100%

## CC(=O)OC1=C(c2c(C)cc(C)cc2C)C(=O)NC12CCOC(C)C2 (single isomer, unassigned) [I-b-2]
[2]; [7]
  effect (kill in %): 100%
[5]
  kill in %: 100%

## Cc1ccc(C2=C(OC(=O)C(C)C)C3(CCOC(C)C3)NC2=O)c(C)c1 (single isomer, unassigned) [I-b-7]
[2]; [7]
  effect (kill in %): 100%
[5]
  kill in %: 100%

## CCOC(=O)OC1=C(c2c(C)cc(C)cc2C)C(=O)NC12CCOC(C)C2 (centres unmarked) [I-c-1]
[2]; [7]
  effect (kill in %): 100%
Aphis fabae
  mortality at 20 ppm: 100%
[5]
  kill in %: 100%

## Cc1ccc(C2=C(O)C3(CCOC(C)C3)NC2=O)c(Cl)c1 (single isomer, unassigned) [I-a-7]
[2]; [7]
  effect (kill in %): 100%
[5]
  kill in %: 100%
[4]
  kill in %: 100%

## Cc1cc(Cl)cc(Cl)c1C1=C(O)C2(CCOC(C)C2)NC1=O (single isomer, unassigned) [I-a-8]
[4]
  kill in %: 100%

## Cc1cc(Cl)ccc1C1=C(OC(=O)C(C)C)C2(CCOC(C)C2)NC1=O (single isomer, unassigned) [I-b-17]
[2]; [6]
  effect (kill in %): 100%
[5]
  kill in %: 100%
[1]
  kill in %: 100%

## Cc1cc(Cl)cc(C)c1C1=C(O)C2(CCOC(C)C2)NC1=O (single isomer, unassigned) [I-a-16]
Myzus persicae
  root-systemic effect (mortality): 100%
[1]
  kill in %: 100%

## CCc1cc(Br)c(C2=C(O)C3(CCOC(C)C3)NC2=O)c(Br)c1 (single isomer, unassigned) [I-a-21]
[1]
  kill in %: 100%

## Cc1cc(C#N)cc(C)c1C1=C(O)C2(CCOC(C)C2)NC1=O (single isomer, unassigned) [I-a-12]
[1]
  kill in %: 100%

## CC(=O)OC1=C(c2ccc(C)cc2C)C(=O)NC12CCOC(C)C2 (single isomer, unassigned) [I-b-6]
[5]
  kill in %: 100%

## CCOC(=O)OC1=C(c2ccc(Br)cc2Cl)C(=O)NC12CCOC(C)C2 (centres unmarked) [I-c-8]
[1]
  kill in %: 100%

## Cc1ccc(C2=C(O)C3(CCOC(C)C3)NC2=O)c(C)c1 (single isomer, unassigned) [I-a-4]
[2]; [7]
  effect (kill in %): 100%

## CCc1ccc(C2=C(OC(=O)C(C)C)C3(CCOC(C)C3)NC2=O)c(Cl)c1 (single isomer, unassigned) [I-b-22]
[2]; [6]
  effect (kill in %): 100%
[5]
  kill in %: 100%
[4]
  kill in %: 100%

## Cc1ccc(C2=C(OC(=O)C(C)C)C3(CCOC(C)C3)NC2=O)c(C)c1 (single isomer, unassigned) [I-b-4]
[2]; [7]
  effect (kill in %): 100%
[5]
  kill in %: 100%
[4]
  kill in %: 100%

## Cc1cc(C)c(C2=C(OC(=O)C(C)C)C3(CCOC(C)C3)NC2=O)c(C)c1C (single isomer, unassigned) [I-b-11]
[5]
  kill in %: 100%

## CCOC(=O)OC1=C(c2cc(C)ccc2C)C(=O)NC12CCOC(C)C2 (centres unmarked) [I-c-15]
[3]
  kill in %: 100%

## Cc1cc(Cl)c(C2=C(O)C3(CCOC(C)C3)NC2=O)c(Cl)c1 (single isomer, unassigned) [I-a-9]
[2]; [7]
  effect (kill in %): 100%
[1]
  kill in %: 100%

## CCOC(=O)OC1=C(c2c(C)cc(Br)cc2C)C(=O)NC12CCOC(C)C2 (centres unmarked) [I-c-11]
[5]
  kill in %: 100%
[1]
  kill in %: 100%

## Cc1cc(C)c(C2=C(OC(=O)C(C)C)C3(CCOC(C)C3)NC2=O)c(C)c1 (centres unmarked) [I-b-1]
Aphis fabae
  mortality at 20 ppm: 100%
[5]
  kill in %: 100%

## CCOC(=O)OC1=C(c2c(C)cc(C)c(C)c2C)C(=O)NC12CCOC(C)C2 (centres unmarked) [I-c-5]
[5]
  kill in %: 100%

## CCc1ccc(C2=C(O)C3(CCOC(C)C3)NC2=O)c(Cl)c1 (single isomer, unassigned) [I-a-22]
[5]
  kill in %: 100%

## Cc1ccc(C2=C(OC(=O)C(C)C)C3(CCOC(C)C3)NC2=O)c(Cl)c1 (single isomer, unassigned) [I-b-8]
[2]; [7]
  effect (kill in %): 100%
[5]
  kill in %: 100%
[4]
  kill in %: 100%

## Cc1cc(Br)cc(C)c1C1=C(O)C2(CCOC(C)C2)NC1=O (single isomer, unassigned) [I-a-18]
[1]
  kill in %: 100%

## CC1CC2(CCO1)NC(=O)C(c1ccc(Br)cc1Cl)=C2OC(=O)CC(C)(C)C (single isomer, unassigned) [I-b-16]
[2]; [6]
  effect (kill in %): 100%

## CC1CC2(CCO1)NC(=O)C(c1ccc(Br)cc1Cl)=C2OC(=O)C(C)C (single isomer, unassigned) [I-b-15]
[2]; [6]
  effect (kill in %): 100%

## CCOC(=O)OC1=C(c2cc(C)c(C)cc2C)C(=O)NC12CCOC(C)C2 (centres unmarked) [I-c-7]
[5]
  kill in %: 100%

## Cc1cc(C)c(C2=C(O)C3(CCOC(C)C3)NC2=O)c(C)c1 (centres unmarked) [I-a-1]
Aphis fabae
  mortality at 20 ppm: 100%

## Cc1ccc(C)c(C2=C(O)C3(CCOC(C)C3)NC2=O)c1 (single isomer, unassigned) [I-a-20]
[3]
  kill in %: 100%
[1]
  kill in %: 100%

## CCOC(=O)OC1=C(c2ccc(C)cc2C)C(=O)NC12CCOC(C)C2 (centres unmarked) [I-c-3]
[2]; [7]
  effect (kill in %): 100%
[5]
  kill in %: 100%
[3]
  kill in %: 100%
[4]
  kill in %: 100%

## Cc1cc(Cl)cc(Br)c1C1=C(O)C2(CCOC(C)C2)NC1=O (single isomer, unassigned) [I-a-19]
[1]
  kill in %: 100%

## Cc1cc(C)c(C2=C(OC(=O)C(C)C)C3(CCOC(C)C3)NC2=O)c(C)c1 (single isomer, unassigned) [I-b-3]
[2]; [7]
  effect (kill in %): 100%

## CCOC(=O)OC1=C(c2ccc(C)cc2C)C(=O)NC12CCOC(C)C2 (centres unmarked) [I-c-4]
[2]; [7]
  effect (kill in %): 100%
[5]
  kill in %: 100%

## CCc1ccc(C2=C(OC(=O)c3cccs3)C3(CCOC(C)C3)NC2=O)c(Cl)c1 (single isomer, unassigned) [I-b-23]
[5]
  kill in %: 100%
[4]
  kill in %: 100%
